Assay results: patent publication US7063946B2, “Methods, reagents, kits and apparatus for protein function analysis” (Meso Scale Technologies, LLC., priority 2001, dated 2006)
Where a SMILES comes first, the peptide text is derived from it.

Columns and labels:
[1] = tested on: tyrosine kinases reported to be the target of each inhibitor; settings: read-out: reported IC50 concentration (1× concentration); for the kinase reported to be the target of the inhibitor; cited from earlier work
[2] = biological target: T1, EphB4 (Mus musculus, UniProt P54761); experiment: Kinase inhibitor profiling, autophosphorylation; format: biochemical
T1 construct: specificity data for proteins generated from a library of eighteen full-length clones; host or cells: rabbit reticulocyte lysate, TnT coupled in vitro transcription/translation (cell-free)
T1 sequence (P54761 16-987): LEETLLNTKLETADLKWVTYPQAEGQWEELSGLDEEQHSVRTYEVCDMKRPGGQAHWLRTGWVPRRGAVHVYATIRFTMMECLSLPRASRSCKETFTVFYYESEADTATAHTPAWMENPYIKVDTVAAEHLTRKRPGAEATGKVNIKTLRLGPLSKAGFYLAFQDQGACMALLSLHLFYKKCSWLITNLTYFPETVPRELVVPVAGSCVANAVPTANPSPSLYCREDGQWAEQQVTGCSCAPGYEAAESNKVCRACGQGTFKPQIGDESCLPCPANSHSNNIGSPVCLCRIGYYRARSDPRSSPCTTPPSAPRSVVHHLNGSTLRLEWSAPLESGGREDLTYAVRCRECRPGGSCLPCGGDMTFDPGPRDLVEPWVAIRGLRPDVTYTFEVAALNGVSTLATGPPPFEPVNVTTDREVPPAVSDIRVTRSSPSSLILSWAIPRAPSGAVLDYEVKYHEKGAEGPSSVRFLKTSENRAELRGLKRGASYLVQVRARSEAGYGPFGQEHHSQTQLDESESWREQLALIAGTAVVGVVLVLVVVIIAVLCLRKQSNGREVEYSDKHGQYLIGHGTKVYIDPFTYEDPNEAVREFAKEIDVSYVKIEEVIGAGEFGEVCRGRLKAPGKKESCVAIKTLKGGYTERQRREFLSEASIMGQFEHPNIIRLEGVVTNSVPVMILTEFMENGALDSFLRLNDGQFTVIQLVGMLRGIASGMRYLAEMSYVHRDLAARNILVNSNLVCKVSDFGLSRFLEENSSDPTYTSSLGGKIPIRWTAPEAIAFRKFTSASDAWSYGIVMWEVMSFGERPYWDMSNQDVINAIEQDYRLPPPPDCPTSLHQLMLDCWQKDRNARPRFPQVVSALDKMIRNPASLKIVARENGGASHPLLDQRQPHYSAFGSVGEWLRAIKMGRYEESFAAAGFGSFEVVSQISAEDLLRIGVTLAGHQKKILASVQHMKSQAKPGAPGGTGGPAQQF
Description: Proteins were produced from DNA plasmids of Mock Luciferase, Promega, tyrosine kinase clone Spleen Tyrosine kinase (SYK, IMAGE ID# 3870426) and Eph receptor-A7 (EphA7, IMAGE ID# 3991628) (Incyte Genomics, CA) and immobilized on streptavidin or avidin coated NPT-IPR plates as described in the Example 7. To promote autophosphorylation in these immobilized and purified proteins, Mn++ ions were added in a 50 μl reaction containing 5 mM MgCl2, 5 mM MnCl2, 100 μM ATP, 25 mM Tris-HCl buffer pH 7.4, 0.05 mM Na3VO4, 0.004% TritonX-100, 2 mM DTT and EDTA-free protease inhibitor (Roche Molecular Biochemicals). This mixture was incubated with shaking at room temperature overnight to allow autophosphorylation. Following this incubation, wells were washed 2 times with TT-buffer and 2 times with water. Following this step, 50 ng Sulfo-TAG labeled anti-phosphotyrosine in buffer containing 25 mM Tris-HCl buffer pH 7.4, 5 mM MgCl2, 0.05 mM Na3VO4, 0.004% TritonX-100, 2 mM DTT and 0.05% IgG in a final volume of 50 μl was added followed by incubation at room temperature for 45 min. The unbound reagents were removed by one time washing with water, and the TAG label was detected in presence of 150 μl IPR assay buffer (0.4 mM Gly—Gly buffer, pH 7.8, 1 mM EDTA, 0.1 M TPA). The ECL signals were measured using an imaging plate reader.
Proteins were produced using 100 ng of plasmid DNA Mock (Luciferase, Promega) or tyrosine kinases (Fert2 IMAGE ID # 4485050, FGFR1 IMAGE ID # 4037899, Fgfr2 IMAGE ID # 2654352, Src IMAGE ID # 3156400, BMX IMAGE ID # 3919253, LCK IMAGE ID # 4191610, Epha7 IMAGE ID # 3991628, Ephb4 IMAGE ID # 4013934, Tek IMAGE ID # 3482498, HCK IMAGE ID # 4778819, BTK IMAGE ID # 4478463, CSK IMAGE ID # 4398416, SYK IMAGE ID # 3870426, FGR IMAGE ID # 4419973, PTK2B IMAGE ID # 4339456, FRK(IMAGE ID # 4515877, Kit IMAGE ID # 2644960, Fgfr-4 IMAGE ID # 4239139, NTRK3 IMAGE ID # 4181574, Kdr IMAGE ID # 4238984, Incyte Genomics, CA) and immobilized on SA or avidin coated NPT-IPR plates as described in previous examples. The unbound components of the translation reaction (including any endogenous kinases) were removed by 3 washes with TT-buffer (25 mM Tris-HCl buffer pH 7.4 and 0.004% Triton), two five minutes washes with high-salt wash buffer (25 mM Tris-HCl buffer pH 7.4, 0.004% Triton, 1M NaCl and 5 mM DTT) and 3 washes with TT-buffer. […] The mixture was incubated at room temperature for 10 mm before starting the kinase reaction by adding 25 μl of 200 μM ATP in buffer A. This mixture was incubated with intermittent shaking at room temperature for 2 hours to overnight to allow (a) phosphorylation of the pEY substrate and (b) autophosphorylation of the immobilized kinases. Autophosphorylation and phosphorylation of the pEY was measured as described in Examples 7 and 8.
The ECL signal in control wells produced by tyrosine kinases was compared to the wells containing inhibitor compounds. The signal produced from Mock was negligible.

[3] = tested on: N-end rule pathway ubiquitylation in reticulocyte lysates; experiment: ECL ubiquitylation assay of EST clone proteins, FK2 antibody coated IPR plate; format: biochemical, rabbit
Description: The following EST clones in bacteria were obtained: IMAGE ID #, 3446518, 3446518, 3446518, 3914731 (RGS4), 3914731 (RGS4), 3914731 (RGS4) (Incyte, Palo Alto). Bacteria containing EST clones were grown in 2 ml LB with 50 μg/ml Amp, and DNA was isolated using QIAprep Spin Miniprep Kit (Qiagen). DNA yield was 5–20 μg.
Proteins were prepared from the EST clones in transcription-translation reaction mixtures (total volume 12.5 uL) as described in the Materials and Methods except for the addition of 1 μM Ub aldehyde (Calbiochem). Then 1 μl of the reaction product was mixed with 50 μl of BB1 supplemented with 20 mM AMP-PNP, 20 mM N-ethylmaleimide and 2 μg/ml Sulfo-TAG-labeled streptavidin in to each well of an IPR plate coated with FK2 antibody.
As previously reported, RGS4 is a substrate of the N-end rule-dependent ubiquitylation in reticulocyte lysates (Davydov and Varshavsky, 2000, J. Biol. Chem., 275:22931–22941). To determine if the protein produced from clone 3446518 was similarly ubiquitylated through the N-end rule pathway, the ECL ubiquitylation assay was performed in the presence of dipeptide inhibitors Arg-β-Ala (type 1 inhibitor of the N-end rule pathway), or Trp-Ala (type 2 inhibitor of the same pathway). As was shown on FIG. 2, the RGS4 signal was reduced 3–4 fold in the presence of Arg-β-Ala (a type 1 inhibitor of the N-end rule pathway), but not in the presence of Trp-Ala (a type 2 inhibitor of the N-end rule pathway) in agreement with the previous report that RGS4 is a type 1 N-end rule substrate in reticulocyte lysates (Davydov and Varshavsky, 2000, J. Biol. Chem., 275:22931–22941). In contrast, the dipeptides had little effect on the assay signal from clone 3446518 (FIG. 2). Thus, a different pathway of the ubiquitin system mediates ubiquitylation of the protein produced from clone 3446518.

[4] = tested on: N-end rule pathway ubiquitylation in reticulocyte lysate; experiment: ECL ubiquitylation assay using Sulfo-TAG-labeled streptavidin and IPR plate coated with FK2 antibody; format: biochemical, rabbit; settings: RGS4 plasmid; for fold reduction of the RGS4 ECL signal in the presence of dipeptide inhibitor: 1 mM dipeptide; for IPR readings, Experiment 1 / IPR readings, Experiment 2: 1 mM dipeptide inhibitor with 50 μM bestatin
Description: Binding Buffer 2 (BB2) refers to 25 mM Tris-HCl buffer pH 7.4 containing 100 mM NaCl, 0.05 mM Na3VO4, 0.004% TritonX-100, 2 mM DTT and protease inhibitors (protease inhibitor cocktail, EDTA free, Roche Applied Science). Proteins were produced by coupled transcription/translation using TnT reaction mixes (Promega Corp, WI). The TNT Quick coupled transcription-translation system (Promega) contains rabbit reticulocyte lysate pre-mixed with most of the reaction components necessary to carry out transcription and translation in vitro (TNT mix), including all the amino acids except methionine. Unless otherwise noted, biotin-labeled in vitro translated proteins were produced in reaction mixtures that contained 8–30 μg/ml of a selected plasmid encoding protein of interest, 5 μl of TNT T7 Quick reticulocyte lysate mix (Promega Corp, WI) or TnT SP6 Quick Coupled Transcription/Translation System (Promega Corp, WI), 20 μM methionine, 50 μM MG-132 (Calbiochem, proteasome inhibitor to inhibit degradation of ubiquitylated proteins by proteasome) and 20 μg/ml biotinylated Lys-tRNA (transcend tRNA, Promega). The reactions were allowed to proceed for 20–90 min at 30° C. The reactions were stopped by the addition of BB1 supplemented with 20 mM AMP-PNP (Sigma, a non-hydrolyzable ATP analog), 20 mM N-ethylmaleimide (Sigma, an irreversible inhibitor of deubiquitylating enzymes) or, alternatively, by the addition of BB2. BB1 was used in screens involving the ubiquitination pathway. BB2 was used for other assay formats. The produced proteins were used in the assays of interest with or without further purification.
Transcription-translation reaction mixtures were prepared as described in the Example 1 except that no labeled ubiquitin was added. Some reactions also contained 1 mM dipeptide inhibitor of the N-end rule pathway (either Arg-β-Ala, or Trp-Ala) together with 50 μM bestatin as indicated (Table 2). The reaction was allowed to proceed for 20 min at 30° C. Then 1 μl of the reaction was mixed with 50 μl of BB1 supplemented with 20 mM AMP-PNP, 20 mM N-ethylmaleimide, and 2 μg/ml Sulfo-TAG-labeled streptavidin in a well of an IPR plate coated with an anti-ubiquitin antibody (FK2 antibody, Affiniti). […] In a typical assay the presence of RGS4-encoding plasmid produced a 30–100 fold higher ECL signal compared to the empty vector (FIG. 2, Table 2). This signal was reduced 3–4 fold in the presence of Arg-β-Ala (a type 1 inhibitor of the N-end rule pathway), but not in the presence of Trp-Ala (a type 2 inhibitor of the N-end rule pathway) in agreement with the previous report that RGS4 is a type 1 N-end rule substrate in reticulocyte lysates (Davydov and Varshavsky, 2000, J. Biol. Chem., 275:22931–22941). In the same assay RGS4 produced 3–5 fold higher ECL signal compared to RGS4C2V, when the same amounts of the corresponding plasmids were added to the reaction mixtures (Table 2).

[5] = clone 3446518 in the presence of dipeptide inhibitor
[6] = clone 3914731 (RGS4) in the presence of dipeptide inhibitor

## N#C/C(=C\c1ccc(O)c(O)c1)C(=O)c1ccc(O)c(O)c1 [AG-538]
[1]
  IC50: 0.06 µM
[2]
  Inhibition specificity towards Autophosphorylation at 10X IC50, Ephb4: L (low inhibition (“L”=between 50–75% of the activity remaining))

## N=C(N)NCCC[C@H](N)C(=O)NCCC(=O)O [Arg-β-Ala]
[3]; RGS4
  fold reduction of the RGS4 signal in the presence of dipeptide inhibitor: 3–4 fold
[3]; [5]
  ECL readings, Experiment 1: 10484
  ECL readings, Experiment 2: 10829
  ECL readings, Experiment 3: 9665
[3]; [6]
  ECL readings, Experiment 1: 15074
  ECL readings, Experiment 2: 15016
  ECL readings, Experiment 3: 14555
[4]
  fold reduction of the RGS4 ECL signal in the presence of dipeptide inhibitor: 3–4 fold
  IPR readings, Experiment 1: 6224
  IPR readings, Experiment 2: 6184

## C[C@H](NC(=O)[C@@H](N)Cc1c[nH]c2ccccc12)C(=O)O [Trp-Ala] (H-Trp-Ala-OH)
[3]; [5]
  ECL readings, Experiment 1: 11249
  ECL readings, Experiment 2: 11550
  ECL readings, Experiment 3: 11464
[3]; [6]
  ECL readings, Experiment 1: 41229
  ECL readings, Experiment 2: 40401
  ECL readings, Experiment 3: 38552
[4]
  fold reduction of the RGS4 ECL signal in the presence of dipeptide inhibitor: not
  IPR readings, Experiment 1: 19196
  IPR readings, Experiment 2: 19268
